This note sets out measurements from patent publication US5622933A, “Multiple branch peptide constructions for use against HIV” (priority 1993, dated 1997).

For one data set, the system named is HIV-1 (IIIB). The data set is classed as cell-based. Conditions: for number of syncytia (HIV-1 induced cell fusion): 24 hours. The source says: 50×10^3 8E5 cells chronically infected with a RT-deficient HIV-I (IIIB) isolate, were co-cultivated with 150×10^3 phytohemagglutinin (PHA) stimulated human peripheral blood lymphocytes (PBLs) in the presence of the indicated peptide in 96-well plates. The MBPCs used are described by the peptides attached, and the number thereof, to a core lysine matrix, which is designated HLC. All amino acids used for this experiment were in dextro form.

Another data set concerns HIV-1Lai. Nature of the data set: Syncytia formation blockage (chronically infected cells + uninfected Molt-4 cells). The data set is classed as cell-based. On the set-up: key: -: The presence of syncytia is indicated by + signs, allocated in approximate proportion to the quantities counted; The presence of syncytia is indicated by + signs, allocated in approximate proportion to the quantities counted; ++: The presence of syncytia is indicated by + signs, allocated in approximate proportion to the quantities counted; +++: The presence of syncytia is indicated by + signs, allocated in approximate proportion to the quantities counted; ++++: The presence of syncytia is indicated by + signs, allocated in approximate proportion to the quantities counted. On the procedure:
(§1) CEM or C8166 cells were chronically infected with HIV-1 Lai or HIV-2 Rod, or HIV-1MN, respectively. Infected cells (1×10^4) were incubated for 2 hours with various concentrations of MBPCs in 96-well plates. Uninfected Molt-4 cells (4×10^4) were then added in […]. Syncytia were counted after 18 hours at 37° C.

The next data set concerns HIV-1MN. Described as above. On the set-up: key: -: The presence of syncytia is indicated by + signs, allocated in approximate proportion to the quantities counted; The presence of syncytia is indicated by + signs, allocated in approximate proportion to the quantities counted; ++: The presence of syncytia is indicated by + signs, allocated in approximate proportion to the quantities counted; +++: The presence of syncytia is indicated by + signs, allocated in approximate proportion to the quantities counted; ++++: The presence of syncytia is indicated by + signs, allocated in approximate proportion to the quantities counted. The data set is classed as cell-based. On the procedure:
as §1

The subject of the next data set is HIV-2Rod. Described as above. Type of data set: cell-based. On the set-up: key: -: The presence of syncytia is indicated by + signs, allocated in approximate proportion to the quantities counted; The presence of syncytia is indicated by + signs, allocated in approximate proportion to the quantities counted; ++: The presence of syncytia is indicated by + signs, allocated in approximate proportion to the quantities counted; +++: The presence of syncytia is indicated by + signs, allocated in approximate proportion to the quantities counted; ++++: The presence of syncytia is indicated by + signs, allocated in approximate proportion to the quantities counted. How it is done: as §1

The test system of the next data set is HIV. In words: Inhibition of syncytia formation induced by HIV (summary statements). Type of data set: cell-based. On the procedure:
as §1

In another data set the test system is HIV-1 or HIV-2. In words: Infection of human PBLs (RT activity, p24gag). Type of data set: cell-based. Conditions: MBPC 10^-5 M; days 10 and 13 after infection; culture supernatants. On the procedure: Peripheral blood lymphocytes (PBLs) were obtained from healthy donors, stimulated with phytohemagglutinin, and cultivated in RPMI 1640 containing 10% fetal calf serum and interleukin-2 (complete medium). Samples of 6×10^6 cells/ml were either treated or not treated with the indicated MBPC at a concentration of 10^-5 M and exposed to HIV-1 or HIV-2 (100 TCID50) for 1 hour at 37° C. in the continued presence of MBPCs. After thorough washing, PBLs were cultured in complete medium with 10^-5 M of the corresponding MBPC. The state of infection was assessed by determination of RT activity (for both HIV-1 and HIV-2 isolates) and HIV-1 p24^gag measurements (Coulter kit, cut-off 10 pg/ml) in the case of HIV-1 isolates 10 days post-infection. The MBPC treatment used were as follows: 1-none; 2- [GPGRAF]8 -MLC; 3-[[…]]4 -MLC; 4- [[…]]4 -MLC (a non-HIV related MBPC) (MLC indicates a core lysine structure). The results shown in FIGS. 2A-2C are representative of three separate experiments. The nature of the viral isolates used was checked by PCR (HIV-1 versus HIV-2 isolates) and RIPA for discriminating between HIV-1 (LAI) and HIV-1 (NDK).

In the next data set the test system is rabbits. In words: ELISA of sera from rabbits immunized with MBPC.1 or MBPC.2. Type of data set: in vivo, rabbit. Conditions: for reactivity of sera from rabbits immunized with the MBPC (ELISA, FIG. 6): against MBPC.1, MBPC.2, Mono.1 and V3 Cons; for antibody response in rabbits: rabbit, in vivo. How it is done:
Sera from rabbits immunized with either MBPC.1 or MBPC.2 were tested in ELISA for their ability to bind MBPC.1, MBPC.2, Mono.1 (the monomeric form of MBPC.1) and the North American/European consensus V3 sequence (V3 Cons, or Cs).
In another set of experiments, sera from rabbits immunized with either MBPC.1 or MBPC.2 were tested (at 1/100 and 1/1000 dilutions) against various concentrations of MBPC.1, MBPC.2 and V3 Cons. FIGS. 7A, 7B and 7C clearly indicate that sera from rabbits immunized with MBPC.2 reacted in a dose dependant manner against MBPC.2 and V3 Cons. No reactivity against MBPC.1 was detected.
A general note: An ELISA detects its analyte on a solid surface through an enzyme-linked reagent.

A further data set concerns HIV-1 (89.6). Nature of the data set: Infection of and syncytia formation in human primary macrophages. The data set is classed as cell-based. The settings on record: 5×10^-5 M; for inhibition of macrophage infection, in words: 10,000 TCID50. On the procedure:
MBPCs were also evaluated for their ability to block the infection of human primary macrophages by a highly cytopathic macrophage-tropic isolate, HIV-1 (89.6). Mononuclear cells were isolated from leukophoresis units enriched for monocytes by Ficoll-Hypaque density separation. Macrophages were purified by adherence to plastic in RPMI 1640 supplemented with 10% fetal calf serum and 5% human AB serum. […] 5×10^5 cells were treated for 45 minutes with the indicated MBPC at concentrations of 5×10^-5 M and subsequently exposed to 10,000 TCID50 of the macrophage-tropic isolate HIV (89.6). […] After thorough washing, the cells were fed again with medium and analyzed for HIV-1 p24^gag production and syncytia formation 4 days post-infection.

Like-named read-outs stand apart in the source and are kept apart here. Ends that are not written are not given here.

With (GPGRAF)8 -(K)4 -(K)2 -K-βA-OH [MBPC.3], the “number of syncytia (HIV-1 induced cell fusion)” value is given as “- (- indicates the total absence of syncytia in the well)” with HIV-1 (IIIB) (5 × 10^-5 M), “- (- indicates the total absence of syncytia in the well)” with HIV-1 (IIIB) (5 × 10^-6 M) and “±” with HIV-1 (IIIB) (5 × 10^-7 M). Besides, the “inhibition of syncytia formation, in words” value in the data set with HIV-1 (IIIB) (5×10^-7 M) is reported as “marked inhibition of syncytia formation”. Besides, the Syncytia formation result is on record as “-” with HIV-1Lai (MBPC Conc. 5 × 10^-6 M); “+” with HIV-1Lai (MBPC Conc. 10^-6 M); “++++” in the data set on HIV-1Lai (MBPC Conc. 10^-7 M); “-” in the data set on HIV-1MN (MBPC Conc. 5 × 10^-6 M); “+” with HIV-1MN (MBPC Conc. 10^-6 M); “+++” in the data set with HIV-1MN (MBPC Conc. 10^-7 M). Further, the Syncytia formation result in the data set with HIV-2Rod (MBPC Conc. 5 × 10^-6 M) is “-”; with HIV-2Rod (MBPC Conc. 10^-6 M), “-”; in the data set on HIV-2Rod (MBPC Conc. 10^-7 M), “+”. In addition, the “MBPC concentration with which inhibiting effect on syncytia formation was observed in vitro” value with HIV is “around 10^-6 M”. Further, the “RT activity lower in MBPCs-treated samples than control samples” value with HIV-1 or HIV-2 is listed as “more than 90%”. Moreover, the “reactivity of sera from rabbits immunized with the MBPC (ELISA, FIG. 6)” value with rabbits is given as “did not react against MBPC.1 (except for a weak reactivity of the serum from rabbit A)”. For the same substance, in the data set with rabbits, the “antibody response in rabbits” value was “did not induce a significant antibody response”. Further, the “inhibition of macrophage infection, in words” value in the data set on HIV-1 (89.6) was “able to inhibit infection”. In addition, the “giant cells (syncytia) in macrophage cultures” value in the data set on HIV-1 (89.6) (pretreated, 4 days post-infection) is on record as “very few giant cells”.

For “(RKSIHIGPGRAFYT)4 -(K)2 -K-βA-OH (also: four copies on lysine core (K)2-K-βA-OH) [MBPC.5, tetradecapeptide MBPC]”, the “inhibition of syncytia formation, in words” value in the data set on HIV-1 (IIIB) (5×10^-6 M) is given as “able to inhibit syncytia formation”. Also, the “number of syncytia (HIV-1 induced cell fusion)” value in the data set with HIV-1 (IIIB) (5 × 10^-6 M) is on record as “- (- indicates the total absence of syncytia in the well)”; in the data set on HIV-1 (IIIB) (5 × 10^-7 M), “+++”. In addition, the Syncytia formation result in the data set on HIV-1Lai (MBPC Conc. 5 × 10^-6 M) is on record as “-”; in the data set with HIV-1Lai (MBPC Conc. 10^-6 M) it was “+”; in the data set with HIV-1Lai (MBPC Conc. 10^-7 M), “++++”; with HIV-1MN (MBPC Conc. 5 × 10^-6 M), “-”; in the data set on HIV-1MN (MBPC Conc. 10^-6 M) it was “++”; in the data set with HIV-1MN (MBPC Conc. 10^-7 M), “++++”. In addition, the Syncytia formation entry with HIV-2Rod (MBPC Conc. 5 × 10^-6 M) is given as “-”; with HIV-2Rod (MBPC Conc. 10^-6 M), “-”; in the data set with HIV-2Rod (MBPC Conc. 10^-7 M), “+”. Further, in the data set with HIV, the “inhibiting effect on syncytia formation, in words” value was “inhibiting effect at a slightly higher concentration”. The “RT activity lower in MBPCs-treated samples than control samples” value in the data set with HIV-1 or HIV-2 is recorded as “more than 90%”. Besides, the “reactivity of sera from rabbits immunized with the MBPC (ELISA, FIG. 6)” value in the data set on rabbits was “recognized significantly MBPC.2 and V3 Cons”. For the same substance, the “antibody response in rabbits” value with rabbits was “did invoke such a response”. Also, the “inhibition of macrophage infection, in words” value in the data set on HIV-1 (89.6) is “able to inhibit infection”.
